# Measurements published in patent US20090215640A1, “METHODS FOR IDENTIFYING LIGANDS FOR STEM CELLS AND CELLS DERIVED THEREFROM” (priority 2005, published 2009).
# Assays:
# [1] = test system: adult heart capillaries and endocardium; conditions: Zhang et al., Circulation 2005; cited from earlier work
# [2] = molecular target: T1, CRIP2 (also known as heart LIM protein (Hlp)) (Mus musculus, UniProt Q9DCT8); conditions: Zhang et al., Circulation 2005; cited from earlier work
# T1 sequence (Q9DCT8 1-208): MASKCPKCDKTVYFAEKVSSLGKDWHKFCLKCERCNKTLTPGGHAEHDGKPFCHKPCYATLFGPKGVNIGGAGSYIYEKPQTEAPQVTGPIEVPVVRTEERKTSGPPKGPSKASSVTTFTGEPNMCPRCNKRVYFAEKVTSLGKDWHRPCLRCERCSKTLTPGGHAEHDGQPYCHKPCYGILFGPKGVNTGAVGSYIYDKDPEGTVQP
# hESCs = test: Binding and internalization of mouse selected peptide phage into hESCs; type: cell-based, human; conditions: subpopulation of hESCs
substance,measurement,setting,value
CRPPR*,Binding to adult heart capillaries and endocardium,[1],known to bind to adult heart capillaries and endocardium
same,Binding to CRIP2,[2],binds to CRIP2
same,Binding and internalization into hESCs,hESCs,binds and internalizes into a subpopulation of hESCs
